Results from the supplement of paper PMC10307832.

Assays:
Assay in all cases: relative viability (nuclei count vs DMSO), 5 days (fraction); higher = more cells survive
VE-821 + Alpelisib = compound: CS(=O)(=O)c1ccc(-c2cnc(N)c(C(=O)Nc3ccccc3)n2)cc1 [VE-821] + Cc1nc(NC(=O)N2CCC[C@H]2C(N)=O)sc1-c1ccnc(C(C)(C)C(F)(F)F)c1 [Alpelisib] (partner 2 µM)
In short: (§1)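 The day after seeding in 1536-well plates, lung cancer cell lines were treated by pin tool with a single drug, or with a fixed anchor-drug dose together with five library-drug doses (not always all listed) in √10 steps. After 5 days, a combined fix-and-stain solution (final 0.05% Triton X-100, 1% formaldehyde, 1 ug/ml Hoechst) was added. Nuclei counted on 4× images gave relative viability as treated counts over vehicle counts, reported as the median of duplicate plates.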

VE-821 + Dasatinib = compound: CS(=O)(=O)c1ccc(-c2cnc(N)c(C(=O)Nc3ccccc3)n2)cc1 [VE-821] + Cc1nc(Nc2ncc(C(=O)Nc3c(C)cccc3Cl)s2)cc(N2CCN(CCO)CC2)n1 [Dasatinib] (partner 0.075 µM)
In short: as §1

Vismodegib + OSI-027 = compound: CS(=O)(=O)c1ccc(C(=O)Nc2ccc(Cl)c(-c3ccccn3)c2)c(Cl)c1 [Vismodegib] + COc1cccc2cc(-c3nc([C@H]4CC[C@H](C(=O)O)CC4)n4ncnc(N)c34)[nH]c12 [OSI-027] (partner 0.5 µM)
In short: as §1

Vismodegib + Pemetrexed = compound: CS(=O)(=O)c1ccc(C(=O)Nc2ccc(Cl)c(-c3ccccn3)c2)c(Cl)c1 [Vismodegib] + Nc1nc2[nH]cc(CCc3ccc(C(=O)N[C@@H](CCC(=O)O)C(=O)O)cc3)c2c(=O)[nH]1 [Pemetrexed] (partner 0.2 µM)
In short: as §1

## HCC-15
VE-821 + Alpelisib; first compound 0.08 µM
  relative viability: 0.976
VE-821 + Alpelisib; first compound 0.253 µM
  relative viability: 0.923
VE-821 + Alpelisib; first compound 0.8 µM
  relative viability: 1.01
VE-821 + Alpelisib; first compound 2.53 µM
  relative viability: 0.999
VE-821 + Alpelisib; first compound 8 µM
  relative viability: 0.961
VE-821 + Dasatinib; first compound 0.08 µM
  relative viability: 0.704
VE-821 + Dasatinib; first compound 0.253 µM
  relative viability: 0.595
VE-821 + Dasatinib; first compound 0.8 µM
  relative viability: 0.6
VE-821 + Dasatinib; first compound 2.53 µM
  relative viability: 0.721
VE-821 + Dasatinib; first compound 8 µM
  relative viability: 0.495
Vismodegib + OSI-027; first compound 0.08 µM
  relative viability: 0.753
Vismodegib + OSI-027; first compound 0.253 µM
  relative viability: 0.664
Vismodegib + OSI-027; first compound 0.8 µM
  relative viability: 0.654
Vismodegib + OSI-027; first compound 2.53 µM
  relative viability: 0.738
Vismodegib + OSI-027; first compound 8 µM
  relative viability: 0.631
Vismodegib + Pemetrexed; first compound 0.08 µM
  relative viability: 0.215
Vismodegib + Pemetrexed; first compound 0.253 µM
  relative viability: 0.215
Vismodegib + Pemetrexed; first compound 0.8 µM
  relative viability: 0.265
Vismodegib + Pemetrexed; first compound 2.53 µM
  relative viability: 0.219
Vismodegib + Pemetrexed; first compound 8 µM
  relative viability: 0.228

## EPLC-272H
VE-821 + Alpelisib; first compound 0.08 µM
  relative viability: 0.998
VE-821 + Alpelisib; first compound 0.253 µM
  relative viability: 0.858
VE-821 + Alpelisib; first compound 0.8 µM
  relative viability: 0.694
VE-821 + Alpelisib; first compound 2.53 µM
  relative viability: 1.23
VE-821 + Alpelisib; first compound 8 µM
  relative viability: 0.807
VE-821 + Dasatinib; first compound 0.08 µM
  relative viability: 0.341
VE-821 + Dasatinib; first compound 0.253 µM
  relative viability: 0.325
VE-821 + Dasatinib; first compound 0.8 µM
  relative viability: 0.418
VE-821 + Dasatinib; first compound 2.53 µM
  relative viability: 0.41
VE-821 + Dasatinib; first compound 8 µM
  relative viability: 0.219
Vismodegib + OSI-027; first compound 0.08 µM
  relative viability: 0.291
Vismodegib + OSI-027; first compound 0.253 µM
  relative viability: 0.273
Vismodegib + OSI-027; first compound 0.8 µM
  relative viability: 0.279
Vismodegib + OSI-027; first compound 2.53 µM
  relative viability: 0.278
Vismodegib + OSI-027; first compound 8 µM
  relative viability: 0.275
Vismodegib + Pemetrexed; first compound 0.08 µM
  relative viability: 0.285
Vismodegib + Pemetrexed; first compound 0.253 µM
  relative viability: 0.418
Vismodegib + Pemetrexed; first compound 0.8 µM
  relative viability: 0.324
Vismodegib + Pemetrexed; first compound 2.53 µM
  relative viability: 0.317
Vismodegib + Pemetrexed; first compound 8 µM
  relative viability: 0.33

## NCI-H1792
VE-821 + Alpelisib; first compound 0.08 µM
  relative viability: 0.846
VE-821 + Alpelisib; first compound 0.253 µM
  relative viability: 0.919
VE-821 + Alpelisib; first compound 0.8 µM
  relative viability: 0.584
VE-821 + Alpelisib; first compound 2.53 µM
  relative viability: 0.587
VE-821 + Alpelisib; first compound 8 µM
  relative viability: 0.681
VE-821 + Dasatinib; first compound 0.08 µM
  relative viability: 0.981
VE-821 + Dasatinib; first compound 0.253 µM
  relative viability: 0.89
VE-821 + Dasatinib; first compound 0.8 µM
  relative viability: 0.731
VE-821 + Dasatinib; first compound 2.53 µM
  relative viability: 0.851
VE-821 + Dasatinib; first compound 8 µM
  relative viability: 0.727
Vismodegib + OSI-027; first compound 0.08 µM
  relative viability: 0.766
Vismodegib + OSI-027; first compound 0.253 µM
  relative viability: 0.75
Vismodegib + OSI-027; first compound 0.8 µM
  relative viability: 0.606
Vismodegib + OSI-027; first compound 2.53 µM
  relative viability: 0.679
Vismodegib + OSI-027; first compound 8 µM
  relative viability: 0.623
Vismodegib + Pemetrexed; first compound 0.08 µM
  relative viability: 0.927
Vismodegib + Pemetrexed; first compound 0.253 µM
  relative viability: 0.881
Vismodegib + Pemetrexed; first compound 0.8 µM
  relative viability: 0.673
Vismodegib + Pemetrexed; first compound 2.53 µM
  relative viability: 0.773
Vismodegib + Pemetrexed; first compound 8 µM
  relative viability: 0.698

## HCC-78
VE-821 + Alpelisib; first compound 0.08 µM
  relative viability: 0.448
VE-821 + Alpelisib; first compound 0.253 µM
  relative viability: 0.289
VE-821 + Alpelisib; first compound 0.8 µM
  relative viability: 0.217
VE-821 + Alpelisib; first compound 2.53 µM
  relative viability: 0.394
VE-821 + Alpelisib; first compound 8 µM
  relative viability: 0.229
VE-821 + Dasatinib; first compound 0.08 µM
  relative viability: 0.453
VE-821 + Dasatinib; first compound 0.253 µM
  relative viability: 0.281
VE-821 + Dasatinib; first compound 0.8 µM
  relative viability: 0.376
VE-821 + Dasatinib; first compound 2.53 µM
  relative viability: 0.432
VE-821 + Dasatinib; first compound 8 µM
  relative viability: 0.33
Vismodegib + OSI-027; first compound 0.08 µM
  relative viability: 0.372
Vismodegib + OSI-027; first compound 0.253 µM
  relative viability: 0.371
Vismodegib + OSI-027; first compound 0.8 µM
  relative viability: 0.382
Vismodegib + OSI-027; first compound 2.53 µM
  relative viability: 0.347
Vismodegib + OSI-027; first compound 8 µM
  relative viability: 0.347
Vismodegib + Pemetrexed; first compound 0.08 µM
  relative viability: 0.907
Vismodegib + Pemetrexed; first compound 0.253 µM
  relative viability: 0.951
Vismodegib + Pemetrexed; first compound 0.8 µM
  relative viability: 0.961
Vismodegib + Pemetrexed; first compound 2.53 µM
  relative viability: 0.785
Vismodegib + Pemetrexed; first compound 8 µM
  relative viability: 0.891

## LXF-289
VE-821 + Alpelisib; first compound 0.08 µM
  relative viability: 1.14
VE-821 + Alpelisib; first compound 0.253 µM
  relative viability: 1.06
VE-821 + Alpelisib; first compound 0.8 µM
  relative viability: 1.02
VE-821 + Alpelisib; first compound 2.53 µM
  relative viability: 1.2
VE-821 + Alpelisib; first compound 8 µM
  relative viability: 1.18
VE-821 + Dasatinib; first compound 0.08 µM
  relative viability: 0.235
VE-821 + Dasatinib; first compound 0.253 µM
  relative viability: 0.247
VE-821 + Dasatinib; first compound 0.8 µM
  relative viability: 0.195
VE-821 + Dasatinib; first compound 2.53 µM
  relative viability: 0.223
VE-821 + Dasatinib; first compound 8 µM
  relative viability: 0.155
Vismodegib + OSI-027; first compound 0.08 µM
  relative viability: 0.764
Vismodegib + OSI-027; first compound 0.253 µM
  relative viability: 0.764
Vismodegib + OSI-027; first compound 0.8 µM
  relative viability: 0.795
Vismodegib + OSI-027; first compound 2.53 µM
  relative viability: 0.823
Vismodegib + OSI-027; first compound 8 µM
  relative viability: 0.59
Vismodegib + Pemetrexed; first compound 0.08 µM
  relative viability: 0.897
Vismodegib + Pemetrexed; first compound 0.253 µM
  relative viability: 0.94
Vismodegib + Pemetrexed; first compound 0.8 µM
  relative viability: 0.933
Vismodegib + Pemetrexed; first compound 2.53 µM
  relative viability: 0.978
Vismodegib + Pemetrexed; first compound 8 µM
  relative viability: 0.759

## NCI-H460
VE-821 + Alpelisib; first compound 0.08 µM
  relative viability: 0.561
VE-821 + Alpelisib; first compound 0.253 µM
  relative viability: 0.394
VE-821 + Alpelisib; first compound 0.8 µM
  relative viability: 0.23
VE-821 + Alpelisib; first compound 2.53 µM
  relative viability: 0.279
VE-821 + Alpelisib; first compound 8 µM
  relative viability: 0.0265
VE-821 + Dasatinib; first compound 0.08 µM
  relative viability: 0.58
VE-821 + Dasatinib; first compound 0.253 µM
  relative viability: 0.488
VE-821 + Dasatinib; first compound 0.8 µM
  relative viability: 0.428
VE-821 + Dasatinib; first compound 2.53 µM
  relative viability: 0.261
VE-821 + Dasatinib; first compound 8 µM
  relative viability: 0.223
Vismodegib + OSI-027; first compound 0.08 µM
  relative viability: 0.644
Vismodegib + OSI-027; first compound 0.253 µM
  relative viability: 0.603
Vismodegib + OSI-027; first compound 0.8 µM
  relative viability: 0.684
Vismodegib + OSI-027; first compound 2.53 µM
  relative viability: 0.622
Vismodegib + OSI-027; first compound 8 µM
  relative viability: 0.559
Vismodegib + Pemetrexed; first compound 0.08 µM
  relative viability: 0.0652
Vismodegib + Pemetrexed; first compound 0.253 µM
  relative viability: 0.0637
Vismodegib + Pemetrexed; first compound 0.8 µM
  relative viability: 0.0589
Vismodegib + Pemetrexed; first compound 2.53 µM
  relative viability: 0.0651
Vismodegib + Pemetrexed; first compound 8 µM
  relative viability: 0.0689

## NCI-H2023
VE-821 + Alpelisib; first compound 0.08 µM
  relative viability: 0.748
VE-821 + Alpelisib; first compound 0.253 µM
  relative viability: 0.588
VE-821 + Alpelisib; first compound 0.8 µM
  relative viability: 0.295
VE-821 + Alpelisib; first compound 2.53 µM
  relative viability: 0.547
VE-821 + Alpelisib; first compound 8 µM
  relative viability: 0.372
VE-821 + Dasatinib; first compound 0.08 µM
  relative viability: 0.681
VE-821 + Dasatinib; first compound 0.253 µM
  relative viability: 0.432
VE-821 + Dasatinib; first compound 0.8 µM
  relative viability: 0.458
VE-821 + Dasatinib; first compound 2.53 µM
  relative viability: 0.373
VE-821 + Dasatinib; first compound 8 µM
  relative viability: 0.13
Vismodegib + OSI-027; first compound 0.08 µM
  relative viability: 0.464
Vismodegib + OSI-027; first compound 0.253 µM
  relative viability: 0.354
Vismodegib + OSI-027; first compound 0.8 µM
  relative viability: 0.411
Vismodegib + OSI-027; first compound 2.53 µM
  relative viability: 0.322
Vismodegib + OSI-027; first compound 8 µM
  relative viability: 0.478
Vismodegib + Pemetrexed; first compound 0.08 µM
  relative viability: 0.256
Vismodegib + Pemetrexed; first compound 0.253 µM
  relative viability: 0.216
Vismodegib + Pemetrexed; first compound 0.8 µM
  relative viability: 0.219
Vismodegib + Pemetrexed; first compound 2.53 µM
  relative viability: 0.235
Vismodegib + Pemetrexed; first compound 8 µM
  relative viability: 0.248

## SK-LU-1
VE-821 + Alpelisib; first compound 0.08 µM
  relative viability: 1.02
VE-821 + Alpelisib; first compound 0.253 µM
  relative viability: 0.964
VE-821 + Alpelisib; first compound 0.8 µM
  relative viability: 0.803
VE-821 + Alpelisib; first compound 2.53 µM
  relative viability: 0.499
VE-821 + Alpelisib; first compound 8 µM
  relative viability: 0.328
VE-821 + Dasatinib; first compound 0.08 µM
  relative viability: 0.17
VE-821 + Dasatinib; first compound 0.253 µM
  relative viability: 0.19
VE-821 + Dasatinib; first compound 0.8 µM
  relative viability: 0.163
VE-821 + Dasatinib; first compound 2.53 µM
  relative viability: 0.16
VE-821 + Dasatinib; first compound 8 µM
  relative viability: 0.12
Vismodegib + OSI-027; first compound 0.08 µM
  relative viability: 0.414
Vismodegib + OSI-027; first compound 0.253 µM
  relative viability: 0.39
Vismodegib + OSI-027; first compound 0.8 µM
  relative viability: 0.384
Vismodegib + OSI-027; first compound 2.53 µM
  relative viability: 0.401
Vismodegib + OSI-027; first compound 8 µM
  relative viability: 0.345
Vismodegib + Pemetrexed; first compound 0.08 µM
  relative viability: 0.971
Vismodegib + Pemetrexed; first compound 0.253 µM
  relative viability: 1.03
Vismodegib + Pemetrexed; first compound 0.8 µM
  relative viability: 0.982
Vismodegib + Pemetrexed; first compound 2.53 µM
  relative viability: 0.909
Vismodegib + Pemetrexed; first compound 8 µM
  relative viability: 0.845
